{"source": "paper PMC12024912", "about": "“Druggability Studies of Benzene Sulfonamide Substituted Diarylamide (E3) as a Novel Diuretic” (Biomedicines, 2025)", "key": {"mice [1]": {"test_system": "mice", "test": "Long-term (7 d) diuretic activity in mice", "assay_type": "in vivo, mouse", "protocol": "In a single-dose administration experiment, male wild-type (WT) mice, UT-B^-/- mice, UT-A1^-/- mice, or SD rats were adapted in metabolic cages for 3 d. Food and water were provided ad libitum throughout the experiment. Prior to administration, the bladder of each animal was emptied through gentle abdominal massage, and urine was collected from the metabolic cages every 2 h. Compound E3, suspended in 0.5% CMC-Na at an appropriate concentration, was administered intragastric gavage to the mice or rats (0.16, 0.8, 4, or 20 mg/kg). Vehicle control comprised 0.5% (w/v) CMC-Na. Urinary parameters were determined through the following: volume: Gravimetric analysis (1 g/mL density assumption); osmolality: freezing-point osmometry (Micro-osmometer, […] Associates, Norwood, MA, USA); and urea: diacetyl oxime colorimetry (QuantiChrom® kit, Elabscience, Wuhan, China). In long-term (7 d) diuretic activity experiments, male WT mice, UT-B^-/- mice, UT-A1^-/- mice, and SD rats were acclimatized in metabolic cages (Ugo Basile, Comerio, VA, Italy) for 3 d. Food and water were provided ad libitum throughout the experiment. E3 was suspended in 0.5% CMC-Na and administered at a dose of 4 or 20 mg/kg by intragastric gavage. Urine was collected by metabolic cages every 24 h. Body weight was measured daily. At 4 h after the final administration, a blood sample was obtained by heart puncture. Inner medulla and outer medulla tissue homogenates were prepared, and the supernatant after centrifugation was analyzed for solute concentration and osmolality. Urinary osmolality and urea concentration were measured as above. Serum Na^+, K^+, and Cl^- were measured in a clinical chemistry laboratory, while serum creatinine, ALT, and AST were measured through specific reagent kits (NJJC Bio, Nanjing, China)."}, "Blood stability, rabbit": {"test": "Blood stability, rabbit", "assay_type": "in vitro ADME", "conditions": "plasma, n=3", "protocol": "Plasma from mice, rats, rabbits, and humans was obtained from blood after centrifugation at 3000 r/min for 10 min. Simulated gastric fluid (SGF, pH = 1, containing pepsin) and simulated intestinal fluid (SIF, pH = 6.8, containing trypsin) were configured previously in the experiments. SD rats and mice were collected, and after removing the mucus layer from the small intestine and colon, 20 times the volume of liquid bacterial culture medium was added. An intestinal microbiota suspension was obtained after anaerobic cultivation on a shaking table at 37 °C for 12 h. In the aforementioned systems, E3 was added at a final concentration of 1 μmol/L at 37 °C for different incubation times (0, 10, 20, 30, 60, 120, and 240 min). In liver metabolic stability assays, E3 was incubated with liver microsomes or liver homogenate from mice or rats for 60 min at 37 °C. The stop solution, 5 ng/mL tolbutamide (internal standard, IS) in acetonitrile, was added to stop the metabolic process. Post-centrifugation (18,000× g, 10 min, 4 °C), supernatants were subjected to liquid chromatography–tandem mass spectrometry (LC–MS/MS). Analyte-to-IS peak area ratios quantified residual percentages via Equation (2):Remaining% = (E3peak area/ISpeak area at different time)/(E3peak area/ISpeak area at 0 min) × 100%.(2)"}, "[2]": {"test": "Subacute oral toxicity test in mice", "assay_type": "in vivo", "conditions": "male, mouse, in vivo, 1000 mg/kg, oral, 30 d, read-out: no observed adverse effect level (NOAEL)", "protocol": "(§1) The subacute oral toxicity test was performed according to “Guidance on Repeated Dose Toxicity Study for Pharmaceuticals” (2014). […] Eighteen male mice were evenly divided into two groups. Mice of the control group were orally administered with solvent (0.5% CMC-Na). Another group was orally administered with E3 1000 mg/kg. The solvent or E3 was administered once a day for 30 continuous days and withdrawn for 14 d for recovery. After the 30-day treatment, 12 mice (6/group) were chosen at random and sacrificed for necropsy.\n(§2) During the study, the clinical symptoms, morbidity, and mortality of mice were observed twice a day at the side of the cage. Changes in appearance, behavior, appetite, gait, secretions, and excretions of the rats were meticulously documented. The body weights were measured before the start of the experiment, and the weights were measured every 2 d thereafter. Echocardiography was performed and evaluated every 10 d. Under anesthesia, blood samples were taken before the autopsy for hematological and clinical biochemistry analysis by an automated hematology analyzer (HEMAVET 950FS, Drew Scientific, TX, USA) and an automated biochemical analyzer (BS-180, Mindray Diagnostics, Shenzhen, China). The following organs were weighed: heart, liver, kidney, spleen, lung, thymus gland, testis, and brain. Furthermore, the corresponding organ/body weight ratio was computed. A comprehensive histopathological analysis was performed on vital tissues and organs."}, "mice [3]": {"test_system": "mice", "test": "Subacute oral toxicity test in mice", "assay_type": "in vivo", "protocol": "as §1, §2"}, "[4]": {"conditions": "UT-B−/− mice, long-term treatment"}, "[5]": {"conditions": "mice, oral 20 mg/kg, consecutive administrations"}}}
{"compound": "CC(=O)c1ccc(C(=O)Nc2cccc(NS(=O)(=O)c3ccccc3)c2)o1", "note": "[Compound E3, 5-acetyl-N-(3-(phenylsulfonamido)phenyl)furan-2-carboxamide]", "values": [{"measurement": "diuretic effect", "setting": "mice [1]; UT-A1−/− mice, long-term treatment", "result": "no significant diuretic effect"}, {"measurement": "urine osmolality", "setting": "mice [1]; [4]", "result": "decreased"}, {"measurement": "urine output", "setting": "mice [1]; [4]", "result": "increased"}, {"measurement": "excretion of non-urea solutes", "setting": "mice [1]; [5]", "result": "no significant difference"}, {"measurement": "urine osmolality", "setting": "mice [1]; [5]", "result": "significantly decreased"}, {"measurement": "urine output", "setting": "mice [1]; [5]", "result": "significantly increased"}, {"measurement": "urine urea concentration", "setting": "mice [1]; [5]", "result": "significantly decreased"}, {"measurement": "remaining at 1 μmol/L", "setting": "Blood stability, rabbit", "result": 35.7, "unit": "%"}, {"measurement": "NOAEL at 30 d", "setting": "[2]", "result": 1000, "unit": "mg/kg/day"}, {"measurement": "appearance, behavior, secretions, and excretions", "setting": "mice [3]; 1000 mg/kg daily oral, 30 days", "result": "no apparent abnormality"}, {"measurement": "body weight or organ indexes", "setting": "mice [3]; 1000 mg/kg daily oral, 30 days", "result": "no significant change"}, {"measurement": "histopathology of brain, lung, heart, spleen, liver, kidney, testis", "setting": "mice [3]; 1000 mg/kg daily oral, 30 days", "result": "No histopathological toxic lesion"}, {"measurement": "blood parameters and blood biochemical indexes", "setting": "mice [3]; 1000 mg/kg daily oral, 30 days, vs control", "result": "no significant changes"}, {"measurement": "left ventricular ejection fraction and fractional shortening (cardiac ultrasound)", "setting": "mice [3]; 1000 mg/kg daily, during and after administration", "result": "no significant abnormality"}, {"measurement": "EOS", "setting": "mice [3]; 1 g/kg, 30 d, mean, n=9", "result": 0.13, "unit": "%"}, {"measurement": "HB", "setting": "mice [3]; 1 g/kg, 30 d, mean, n=9", "result": 80.11, "unit": "g/L"}, {"measurement": "HCT", "setting": "mice [3]; 1 g/kg, 30 d, mean, n=9", "result": 41.04, "unit": "%"}, {"measurement": "LYM", "setting": "mice [3]; 1 g/kg, 30 d, mean, n=9", "result": 74.12, "unit": "%"}, {"measurement": "MCH", "setting": "mice [3]; 1 g/kg, 30 d, mean, n=9", "result": 9.96, "unit": "pg"}, {"measurement": "MCHC", "setting": "mice [3]; 1 g/kg, 30 d, mean, n=9", "result": 195.33, "unit": "g/L"}, {"measurement": "MCV", "setting": "mice [3]; 1 g/kg, 30 d, mean, n=9", "result": 51.09, "unit": "fL"}, {"measurement": "MONO", "setting": "mice [3]; 1 g/kg, 30 d, mean, n=9", "result": 3.02, "unit": "%"}, {"measurement": "MPV", "setting": "mice [3]; 1 g/kg, 30 d, mean, n=9", "result": 3.01, "unit": "fL"}, {"measurement": "NEU", "setting": "mice [3]; 1 g/kg, 30 d, mean, n=9", "result": 22.71, "unit": "%"}, {"measurement": "PLT", "setting": "mice [3]; 1 g/kg, 30 d, mean, n=9", "result": "1313.22 109/L"}, {"measurement": "RBC", "setting": "mice [3]; 1 g/kg, 30 d, mean, n=9", "result": "8.03 1012/L"}, {"measurement": "RDW", "setting": "mice [3]; 1 g/kg, 30 d, mean, n=9", "result": 16.07, "unit": "%"}, {"measurement": "WBC", "setting": "mice [3]; 1 g/kg, 30 d, mean, n=9", "result": "8.37 109/L"}, {"measurement": "delayed toxicity (14 d recovery period)", "setting": "mice [3]; after 30 d of 1000 mg/kg", "result": "no delayed toxicity"}]}
